Structures can show the parent of a compound that is named as a salt. Each block holds one compound with its values, some of them ahead of it.
Key:
[1] = system: clinical Escherichia coli biofilm; experiment: In vitro bactericidal assay of biofilm; assay type: cell-based; conditions: catheter biofilm, 6 hours; succinic acid 580 mg/kg; ampicillin 2000 mg/kg for YT16, 500 mg/kg for YT28
Protocol: […] of clinical Escherichia coli (YT3, YT11, YT12, YT16, YT17, YT21, YT22, YT23, YT28, YT33) were picked, monocloned into LB medium, and cultured overnight, then were transferred into 2 mL fresh LB medium at 1:200, and added with a 6 mm PE-50 biological catheter that was sterilized by UV, and cultured in a 37° C. incubator for culture for 24 hours. The bacterial solution was replaced with 1 mL of LB medium daily, and the catheter was continuously cultured for 3 days. The prepared biofilm was washed 5 times with 1 mL of sterile normal saline, and then placed in a 1.5 mL EP tube.
The assay was divided into 4 groups: normal saline control group, succinic acid group, ampicillin group, ampicillin+succinic acid group, and the catheters were treated in a shaker at 37° C. and 200 rpm. A dosage of succinic acid was 580 mg/kg, and a dosage of ampicillin was 2000 mg/kg for YT16, and 500 mg/kg for YT28. After 6 hours, ultrasonic cleaning was conducted for 15 minutes, the biofilm on the catheter was eluted and thoroughly mixed, and after gradient dilution, spot plate counting was performed. The formula for calculating the bacterial survival rate is: number of viable bacteria in each group/number of viable bacteria in the control group×100%.

[2] = system: clinical Escherichia coli YT16 and YT28; experiment: Viable bacteria count / survival rate after antibiotic with or without succinic acid in M9 medium; assay type: cell-based
Protocol: A single colony of clinical bacteria was picked from a solid LB plate and was inoculated in 5 mL LB liquid medium for culture at 37° C. and 200 rpm for 16 hours, and then was inoculated in 100 mL LB liquid medium at a ratio of 1:100 (v/v) and was cultured at 37° C. until OD600 value was 1.0. 20 mL of bacterial solution was collected and centrifuged at 8000 rpm for 5 minutes, the supernatant was cleared and bacterial cells were washed with an equal volume of 0.85% normal saline, and finally the bacterial cells were suspended with 1×M9 basic medium (containing 10 mM acetate), the OD value of the bacterial solution was adjusted to 0.5, and then 5 mL of the bacterial solution was aliquoted in a test tube for the following experimental studies.
The survival rates of the clinical bacteria in medium with adding succinic acid and without adding succinic acid at the same antibiotic concentration were compared.
The formula is the number of viable bacteria when different concentrations of succinic acid were added/the number of viable bacteria without adding succinic acid×100%.
In order to study whether clinical Escherichia coli has effect on penicillin antibiotics after adding succinic acid, two clinical Escherichia coli samples of YT16 and YT28 were prepared according to step 2 in Embodiment 1, 20 mM succinic acid and 3 kinds of penicillin were added respectively, […], the number of viable bacteria was counted, and the survival rate was calculated. […]

E. coli K12 = experiment: Minimum inhibitory concentration (MIC), NCCLS method, control strain; assay type: cell-based, Escherichia coli; conditions: no unit in table, MIC in μg/mL
Excerpt: (§1) Escherichia coli (E. coli) are one of the most common bacteria in the clinic. 30 strains of E. coli obtained from the clinic were named YT1-30. The minimum inhibitory concentrations (MIC) of 8 antibiotics against these 30 clinically obtained E. coli was detected according to the NCCLS method, and E. coli K12 was used as a control.

[3] = system: clinical Escherichia coli YT1-30; experiment: Minimum inhibitory concentration (MIC), NCCLS method, 30 clinical strains; assay type: cell-based; set-up: Minimum inhibitory concentration (MIC): unit not given here
Excerpt: as §1

- Minimum inhibitory concentration (MIC) (E. coli K12): 6.1
- Minimum inhibitory concentration (MIC) ([3]; strain YT1): 25000
- Minimum inhibitory concentration (MIC) ([3]; strain YT2): 6250
- Minimum inhibitory concentration (MIC) ([3]; strain YT3): 390.625
- Minimum inhibitory concentration (MIC) ([3]; strain YT4): 6250
- Minimum inhibitory concentration (MIC) ([3]; strain YT5): 25000
- Minimum inhibitory concentration (MIC) ([3]; strain YT6): 1562.5
- Minimum inhibitory concentration (MIC) ([3]; strain YT7): 1562.5
- Minimum inhibitory concentration (MIC) ([3]; strain YT8): 1562.5
- Minimum inhibitory concentration (MIC) ([3]; strain YT9): 1562.5
- Minimum inhibitory concentration (MIC) ([3]; strain YT10): 6250
- Minimum inhibitory concentration (MIC) ([3]; strain YT11): 1562.5
- Minimum inhibitory concentration (MIC) ([3]; strain YT12): 6250
- Minimum inhibitory concentration (MIC) ([3]; strain YT13): 6250
- Minimum inhibitory concentration (MIC) ([3]; strain YT14): 6250
- Minimum inhibitory concentration (MIC) ([3]; strain YT15): 6250
- Minimum inhibitory concentration (MIC) ([3]; strain YT16): 6250
- Minimum inhibitory concentration (MIC) ([3]; strain YT17): 6250
- Minimum inhibitory concentration (MIC) ([3]; strain YT18): 6250
- Minimum inhibitory concentration (MIC) ([3]; strain YT19): 1562.5
- Minimum inhibitory concentration (MIC) ([3]; strain YT20): 1562.5
- Minimum inhibitory concentration (MIC) ([3]; strain YT21): 1562.5
- Minimum inhibitory concentration (MIC) ([3]; strain YT22): 6250
- Minimum inhibitory concentration (MIC) ([3]; strain YT23): 1562.5
- Minimum inhibitory concentration (MIC) ([3]; strain YT24): 6250
- Minimum inhibitory concentration (MIC) ([3]; strain YT25): 6250
- Minimum inhibitory concentration (MIC) ([3]; strain YT26): 6250
- Minimum inhibitory concentration (MIC) ([3]; strain YT27): 6250
- Minimum inhibitory concentration (MIC) ([3]; strain YT28): 1562.5
- Minimum inhibitory concentration (MIC) ([3]; strain YT29): 6250
- Minimum inhibitory concentration (MIC) ([3]; strain YT30): 25000
SMILES: CC1(C)S[C@@H]2[C@H](NC(=O)[C@H](N)c3ccccc3)C(=O)N2[C@H]1C(=O)O [Ampicillin]
- clearance of clinical Escherichia coli on the biofilms, used alone [1]: cannot clear
- survival rate ([2]; YT16, 2.5 mg/mL ampicillin without adding succinic acid, 4 hours): 61.04%
- survival rate ([2]; YT16, 5 mg/mL ampicillin without adding succinic acid, 4 hours): 34.53%
- survival rate ([2]; YT16, 10 mg/mL ampicillin without adding succinic acid, 4 hours (FIG. 1)): 25.99%
- survival rate ([2]; YT16, 10 mg/mL ampicillin without adding succinic acid, 4 hours (FIG. 3)): 73.8%
- survival rate ([2]; YT16, 20 mg/mL ampicillin without adding succinic acid, 4 hours): 12.47%
- survival rate ([2]; YT16, only 10 mg/mL ampicillin added, 1 hour (FIG. 2)): 93.89%
- survival rate ([2]; YT16, only 10 mg/mL ampicillin added, 4 hours (FIG. 2)): 47.34%
- survival rate ([2]; YT16, only 10 mg/mL ampicillin added, 7 hours (FIG. 2)): 18.45%
- survival rate ([2]; YT28, 2.5 mg/mL ampicillin without adding succinic acid, 4 hours): 68.38%
- survival rate ([2]; YT28, 5 mg/mL ampicillin without adding succinic acid, 4 hours): 56.25%
- survival rate ([2]; YT28, 10 mg/mL ampicillin without adding succinic acid, 4 hours (FIG. 1)): 35.87%
- survival rate ([2]; YT28, 10 mg/mL ampicillin without adding succinic acid, 4 hours (FIG. 3)): 86.21%
- survival rate ([2]; YT28, 20 mg/mL ampicillin without adding succinic acid, 4 hours): 27.09%
- survival rate ([2]; YT28, only 10 mg/mL ampicillin added, 1 hour (FIG. 2)): 96.79%
- survival rate ([2]; YT28, only 10 mg/mL ampicillin added, 4 hours (FIG. 2)): 26.79%
- survival rate ([2]; YT28, only 10 mg/mL ampicillin added, 7 hours (FIG. 2)): 14.18%

- Minimum inhibitory concentration (MIC) (E. coli K12): 24.414
- Minimum inhibitory concentration (MIC) ([3]; strain YT1): 390.625
- Minimum inhibitory concentration (MIC) ([3]; strain YT2): 390.625
- Minimum inhibitory concentration (MIC) ([3]; strain YT3): 390.625
- Minimum inhibitory concentration (MIC) ([3]; strain YT4): 1562.5
- Minimum inhibitory concentration (MIC) ([3]; strain YT5): 6250
- Minimum inhibitory concentration (MIC) ([3]; strain YT6): 1562.5
- Minimum inhibitory concentration (MIC) ([3]; strain YT7): 6250
- Minimum inhibitory concentration (MIC) ([3]; strain YT8): 6250
- Minimum inhibitory concentration (MIC) ([3]; strain YT9): 1562.5
- Minimum inhibitory concentration (MIC) ([3]; strain YT10): 6250
- Minimum inhibitory concentration (MIC) ([3]; strain YT11): 25000
- Minimum inhibitory concentration (MIC) ([3]; strain YT12): 25000
- Minimum inhibitory concentration (MIC) ([3]; strain YT13): 25000
- Minimum inhibitory concentration (MIC) ([3]; strain YT14): 25000
- Minimum inhibitory concentration (MIC) ([3]; strain YT15): 25000
- Minimum inhibitory concentration (MIC) ([3]; strain YT16): 25000
- Minimum inhibitory concentration (MIC) ([3]; strain YT17): 25000
- Minimum inhibitory concentration (MIC) ([3]; strain YT18): 390.625
- Minimum inhibitory concentration (MIC) ([3]; strain YT19): 390.625
- Minimum inhibitory concentration (MIC) ([3]; strain YT20): 390.625
- Minimum inhibitory concentration (MIC) ([3]; strain YT21): 390.625
- Minimum inhibitory concentration (MIC) ([3]; strain YT22): 390.625
- Minimum inhibitory concentration (MIC) ([3]; strain YT23): 390.625
- Minimum inhibitory concentration (MIC) ([3]; strain YT24): 390.625
- Minimum inhibitory concentration (MIC) ([3]; strain YT25): 390.625
- Minimum inhibitory concentration (MIC) ([3]; strain YT26): 390.625
- Minimum inhibitory concentration (MIC) ([3]; strain YT27): 390.625
- Minimum inhibitory concentration (MIC) ([3]; strain YT28): 1562.5
- Minimum inhibitory concentration (MIC) ([3]; strain YT29): 390.625
- Minimum inhibitory concentration (MIC) ([3]; strain YT30): 390.625
SMILES: CCC[C@@H]1C[C@@H](C(=O)N[C@@H]([C@H]2O[C@H](SC)[C@H](O)[C@@H](O)[C@H]2O)[C@H](C)Cl)N(C)C1 [Clindamycin hydrochloride]
